Source: paper PMC5428509, “Irreversible inhibition of BTK kinase by a novel highly selective inhibitor CHMFL-BTK-11 suppresses inflammatory response in rheumatoid arthritis model” (Scientific Reports, 2017)

What was measured:
Assay in all cases: biochemical
Design in all cases: KinomeScan competition binding panel (DiscoveRx), percent of control at 1 uM
Conditions in all cases: read-out: Percent Control
[1] = molecular target: T1, ABL1(Y253F)-phosphorylated (Homo sapiens, UniProt P00519, Y253F)
T1 construct: phosphorylated
Outline: (§1)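 Selectivity profiled across 456 kinases/mutants by KinomeScan binding technology.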

[2] = molecular target: AKT2 (Homo sapiens, UniProt P31751)
Outline: as §1

[3] = molecular target: ALK(L1196M) (Homo sapiens, UniProt Q9UM73, L1196M)
Outline: as §1

[4] = molecular target: BMPR2 (Homo sapiens, UniProt Q13873)
Outline: as §1

[5] = molecular target: CDK8 (Homo sapiens, UniProt P49336)
Chain of CDK8 (P49336 whole entry): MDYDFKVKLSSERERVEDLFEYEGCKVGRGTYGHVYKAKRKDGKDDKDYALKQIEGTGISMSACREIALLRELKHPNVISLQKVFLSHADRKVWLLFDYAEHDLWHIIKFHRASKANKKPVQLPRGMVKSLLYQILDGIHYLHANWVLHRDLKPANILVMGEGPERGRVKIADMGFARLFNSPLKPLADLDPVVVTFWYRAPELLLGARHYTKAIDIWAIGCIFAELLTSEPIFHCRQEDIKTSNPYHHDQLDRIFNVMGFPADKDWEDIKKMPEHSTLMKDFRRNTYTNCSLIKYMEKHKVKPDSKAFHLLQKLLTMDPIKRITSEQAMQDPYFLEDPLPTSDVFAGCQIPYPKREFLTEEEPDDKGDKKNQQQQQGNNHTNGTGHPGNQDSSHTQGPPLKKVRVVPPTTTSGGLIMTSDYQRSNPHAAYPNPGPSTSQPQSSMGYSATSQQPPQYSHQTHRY
Outline: as §1

[6] = molecular target: CDKL3 (Homo sapiens, UniProt Q8IVW4)
Outline: as §1

[7] = molecular target: DAPK3 (Homo sapiens, UniProt O43293)
Outline: as §1

[8] = molecular target: T2, DCAMKL2 (Homo sapiens, UniProt Q8N568)
T2 construct: gene DCLK2
T2 sequence (Q8N568 whole entry): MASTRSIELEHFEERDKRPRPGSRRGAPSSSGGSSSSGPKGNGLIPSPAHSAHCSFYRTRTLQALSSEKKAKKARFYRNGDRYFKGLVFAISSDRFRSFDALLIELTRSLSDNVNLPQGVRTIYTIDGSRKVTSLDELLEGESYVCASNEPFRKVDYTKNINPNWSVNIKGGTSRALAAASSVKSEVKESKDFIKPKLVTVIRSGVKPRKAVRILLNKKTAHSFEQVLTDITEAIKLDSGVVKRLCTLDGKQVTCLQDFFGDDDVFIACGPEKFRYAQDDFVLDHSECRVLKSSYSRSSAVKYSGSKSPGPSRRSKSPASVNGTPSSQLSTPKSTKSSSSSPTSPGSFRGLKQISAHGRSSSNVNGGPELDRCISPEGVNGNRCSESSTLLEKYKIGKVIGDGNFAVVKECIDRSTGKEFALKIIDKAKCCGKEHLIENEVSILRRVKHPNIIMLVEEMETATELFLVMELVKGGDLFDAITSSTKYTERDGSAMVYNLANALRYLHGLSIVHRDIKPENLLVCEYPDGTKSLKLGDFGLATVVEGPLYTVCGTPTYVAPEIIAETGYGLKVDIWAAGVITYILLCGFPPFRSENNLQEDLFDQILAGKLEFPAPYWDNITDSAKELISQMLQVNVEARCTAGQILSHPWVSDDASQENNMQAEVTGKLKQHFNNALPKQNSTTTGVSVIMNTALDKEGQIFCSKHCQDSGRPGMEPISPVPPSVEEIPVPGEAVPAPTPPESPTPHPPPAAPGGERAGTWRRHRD
Outline: as §1

[9] = molecular target: EGFR(E746-A750del) (Homo sapiens, UniProt P00533, DEL746-750)
Outline: as §1

[10] = molecular target: FLT3(K663Q) (Homo sapiens, UniProt P36888, K663Q)
Outline: as §1

[11] = molecular target: FLT3(R834Q) (Homo sapiens, UniProt P36888, R834Q)
Outline: as §1

[12] = molecular target: GAK (Homo sapiens, UniProt O14976)
Chain of GAK (O14976 whole entry): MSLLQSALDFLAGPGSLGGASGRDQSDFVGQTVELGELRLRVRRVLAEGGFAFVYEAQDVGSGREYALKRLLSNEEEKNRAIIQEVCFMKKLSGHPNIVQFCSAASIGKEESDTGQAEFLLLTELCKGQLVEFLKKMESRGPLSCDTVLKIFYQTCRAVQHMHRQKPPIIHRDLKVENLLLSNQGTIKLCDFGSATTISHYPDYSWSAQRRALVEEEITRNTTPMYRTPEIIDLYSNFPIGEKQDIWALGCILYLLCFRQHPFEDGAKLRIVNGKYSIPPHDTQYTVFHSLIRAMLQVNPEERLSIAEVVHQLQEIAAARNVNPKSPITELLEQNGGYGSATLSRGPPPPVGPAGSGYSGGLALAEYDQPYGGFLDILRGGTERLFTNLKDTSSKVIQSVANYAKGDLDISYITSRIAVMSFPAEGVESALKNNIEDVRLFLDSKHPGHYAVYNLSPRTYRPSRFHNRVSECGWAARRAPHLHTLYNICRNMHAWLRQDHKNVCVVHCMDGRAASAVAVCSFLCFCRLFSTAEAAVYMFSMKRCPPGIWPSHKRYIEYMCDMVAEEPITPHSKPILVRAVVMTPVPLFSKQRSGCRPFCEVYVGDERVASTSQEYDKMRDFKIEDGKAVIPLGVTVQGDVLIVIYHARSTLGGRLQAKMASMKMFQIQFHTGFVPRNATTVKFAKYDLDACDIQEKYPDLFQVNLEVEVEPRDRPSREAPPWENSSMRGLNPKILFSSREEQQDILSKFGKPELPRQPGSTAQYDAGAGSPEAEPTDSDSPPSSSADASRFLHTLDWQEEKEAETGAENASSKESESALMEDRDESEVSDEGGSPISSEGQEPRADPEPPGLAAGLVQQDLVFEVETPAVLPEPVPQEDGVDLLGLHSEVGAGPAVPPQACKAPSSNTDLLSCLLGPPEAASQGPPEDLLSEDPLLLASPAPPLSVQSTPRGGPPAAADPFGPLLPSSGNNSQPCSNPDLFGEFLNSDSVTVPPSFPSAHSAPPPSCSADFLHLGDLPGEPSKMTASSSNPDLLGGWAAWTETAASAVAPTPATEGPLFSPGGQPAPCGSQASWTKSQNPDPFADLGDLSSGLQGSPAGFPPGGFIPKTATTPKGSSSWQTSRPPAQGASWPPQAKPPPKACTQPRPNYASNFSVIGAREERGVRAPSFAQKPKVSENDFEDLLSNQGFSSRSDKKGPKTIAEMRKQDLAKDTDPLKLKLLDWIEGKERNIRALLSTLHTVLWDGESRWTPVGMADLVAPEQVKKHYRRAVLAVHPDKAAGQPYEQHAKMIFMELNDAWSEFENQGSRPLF
Outline: as §1

[13] = molecular target: HIPK1 (Homo sapiens, UniProt Q86Z02)
Outline: as §1

[14] = molecular target: HIPK4 (Homo sapiens, UniProt Q8NE63)
Outline: as §1

[15] = molecular target: MAK (Homo sapiens, UniProt P20794)
Chain of MAK (P20794 whole entry): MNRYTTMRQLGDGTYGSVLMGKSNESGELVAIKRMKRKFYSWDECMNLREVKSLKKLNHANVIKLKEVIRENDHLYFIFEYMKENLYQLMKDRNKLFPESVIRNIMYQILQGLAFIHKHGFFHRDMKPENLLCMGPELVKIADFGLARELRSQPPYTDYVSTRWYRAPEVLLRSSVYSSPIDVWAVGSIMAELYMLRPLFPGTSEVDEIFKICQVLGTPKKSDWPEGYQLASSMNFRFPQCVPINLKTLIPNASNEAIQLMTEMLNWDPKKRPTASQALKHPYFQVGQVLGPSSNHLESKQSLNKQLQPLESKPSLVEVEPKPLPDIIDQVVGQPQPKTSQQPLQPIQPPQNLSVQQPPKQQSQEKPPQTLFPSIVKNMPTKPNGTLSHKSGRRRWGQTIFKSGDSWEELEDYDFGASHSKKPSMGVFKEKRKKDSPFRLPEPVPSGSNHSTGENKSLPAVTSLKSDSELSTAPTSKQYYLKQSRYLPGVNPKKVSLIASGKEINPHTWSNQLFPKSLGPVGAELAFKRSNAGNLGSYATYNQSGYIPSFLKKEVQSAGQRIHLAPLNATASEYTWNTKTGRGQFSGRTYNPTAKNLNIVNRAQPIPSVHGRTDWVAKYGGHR
Outline: as §1

[16] = molecular target: T3, MRCKA (Homo sapiens, UniProt Q5VT25)
T3 construct: gene CDC42BPA
Outline: as §1

[17] = molecular target: T4, NDR2 (Homo sapiens, UniProt Q9Y2H1)
T4 construct: gene STK38L
Outline: as §1

[18] = molecular target: PIK3C2G (Homo sapiens, UniProt O75747)
Outline: as §1

[19] = molecular target: PIK3CA (Homo sapiens, UniProt P42336)
Outline: as §1

[20] = molecular target: T5, PKAC-beta (Homo sapiens, UniProt P22694)
T5 construct: gene PRKACB
Outline: as §1

[21] = molecular target: PKMYT1 (Homo sapiens, UniProt Q99640)
Outline: as §1

[22] = molecular target: PRKG1 (Homo sapiens, UniProt Q13976)
Outline: as §1

[23] = molecular target: T6, PRP4 (Homo sapiens, UniProt Q13523)
T6 construct: gene PRPF4B
T6 sequence (Q13523 whole entry): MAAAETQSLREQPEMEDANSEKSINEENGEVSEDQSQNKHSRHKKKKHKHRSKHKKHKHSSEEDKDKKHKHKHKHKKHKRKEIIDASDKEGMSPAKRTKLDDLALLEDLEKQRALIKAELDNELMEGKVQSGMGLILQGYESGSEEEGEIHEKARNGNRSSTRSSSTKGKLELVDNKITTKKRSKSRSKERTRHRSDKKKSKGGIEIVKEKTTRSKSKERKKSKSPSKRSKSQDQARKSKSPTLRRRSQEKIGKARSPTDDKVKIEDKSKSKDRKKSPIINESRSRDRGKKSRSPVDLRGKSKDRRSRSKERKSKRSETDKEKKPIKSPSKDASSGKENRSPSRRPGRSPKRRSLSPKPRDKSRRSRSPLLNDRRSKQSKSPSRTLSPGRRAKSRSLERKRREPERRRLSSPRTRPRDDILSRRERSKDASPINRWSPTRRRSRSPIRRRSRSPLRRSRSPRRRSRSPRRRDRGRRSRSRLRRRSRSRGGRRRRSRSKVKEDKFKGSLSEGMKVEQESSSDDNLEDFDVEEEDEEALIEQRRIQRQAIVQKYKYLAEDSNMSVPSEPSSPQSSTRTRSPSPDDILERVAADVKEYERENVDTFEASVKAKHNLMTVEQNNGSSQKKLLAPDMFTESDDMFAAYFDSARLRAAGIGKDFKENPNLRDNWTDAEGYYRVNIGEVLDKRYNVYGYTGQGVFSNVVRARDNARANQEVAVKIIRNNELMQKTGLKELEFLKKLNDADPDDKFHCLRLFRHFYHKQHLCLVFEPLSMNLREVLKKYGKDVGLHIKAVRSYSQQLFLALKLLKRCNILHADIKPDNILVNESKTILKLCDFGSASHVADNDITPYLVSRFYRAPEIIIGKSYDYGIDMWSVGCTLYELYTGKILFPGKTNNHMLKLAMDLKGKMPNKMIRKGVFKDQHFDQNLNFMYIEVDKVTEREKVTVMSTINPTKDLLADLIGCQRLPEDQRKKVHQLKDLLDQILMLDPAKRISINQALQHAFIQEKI
Outline: as §1

[24] = molecular target: RIOK2 (Homo sapiens, UniProt Q9BVS4)
Chain of RIOK2 (Q9BVS4 whole entry): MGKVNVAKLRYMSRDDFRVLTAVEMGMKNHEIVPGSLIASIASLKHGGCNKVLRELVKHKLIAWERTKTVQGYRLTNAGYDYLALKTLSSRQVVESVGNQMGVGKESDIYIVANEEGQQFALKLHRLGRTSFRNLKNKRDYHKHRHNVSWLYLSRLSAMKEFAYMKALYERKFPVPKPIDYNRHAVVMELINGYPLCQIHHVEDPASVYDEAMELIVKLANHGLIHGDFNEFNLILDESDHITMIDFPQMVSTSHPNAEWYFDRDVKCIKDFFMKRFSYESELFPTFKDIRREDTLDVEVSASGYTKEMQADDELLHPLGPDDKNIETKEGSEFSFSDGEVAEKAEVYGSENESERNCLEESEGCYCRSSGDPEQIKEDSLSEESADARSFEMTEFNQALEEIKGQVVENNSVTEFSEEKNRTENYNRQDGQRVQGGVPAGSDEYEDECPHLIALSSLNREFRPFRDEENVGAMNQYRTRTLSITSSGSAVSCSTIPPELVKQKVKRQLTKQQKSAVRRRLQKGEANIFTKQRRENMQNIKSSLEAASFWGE
Outline: as §1

[25] = molecular target: T7, SGK (Homo sapiens, UniProt O00141)
T7 construct: gene SGK1
Outline: as §1

With `C=CC(=O)Nc1cc(-n2c(=O)ccc3cnc4ccc(-n5cccn5)cc4c32)ccc1C` [CHMFL-BTK-11] the remaining binding at 1 µM [1] was 89%, the remaining binding at 1 µM [2] was 100% and the remaining binding at 1 µM [3] was 88%. The remaining binding at 1 µM [4] was 100%, the remaining binding at 1 µM [5] was 91% and the remaining binding at 1 µM [6] was 90%. It also gave a remaining binding at 1 µM [7] of 100%, a remaining binding at 1 µM [8] of 100% and a remaining binding at 1 µM [9] of 90%. The remaining binding at 1 µM [10] was 100%, the remaining binding at 1 µM [11] was 99% and the remaining binding at 1 µM [12] was 100%. For the same molecule, the remaining binding at 1 µM [13] was 79%, the remaining binding at 1 µM [14] was 94% and the remaining binding at 1 µM [15] was 100%. It also gave a remaining binding at 1 µM [16] of 100%, a remaining binding at 1 µM [17] of 99% and a remaining binding at 1 µM [18] of 95%. For the same molecule, the remaining binding at 1 µM [19] was 100%, the remaining binding at 1 µM [20] was 100% and the remaining binding at 1 µM [21] was 94%. It also gave a remaining binding at 1 µM [22] of 100%, a remaining binding at 1 µM [23] of 93% and a remaining binding at 1 µM [24] of 87%. The remaining binding at 1 µM [25] was 65%.
